What was measured:
[1] = system: IL-8; assay: IL-8 assay (ELISA) in culture supernatants of NHEK after induction with IL-1β; type: cell-based, human
Procedure: This study is carried out on normal human Keratinocytes (NHEK).
In this example, the anti-inflammatory properties of the compound (Ia) are evaluated by the assay of the IL-8, after the application of the cytokine IL-1β at 10 ng/ml onto NHEKs. IL-8 is a major inflammatory cytokine produced first of all during the inflammatory response of the keratinocytes. The quantification of the IL-8 in the culture supernatants allows an evaluation of the inflammatory state of the cells.
The IL-1β is added to the culture medium of the NHEKs at a rate of 10 ng/ml for 24 h. After incubation, the culture media are removed and replaced with culture media containing the compound (Ia) at 3 ppm. After 24 h of incubation, the supernatants are collected.
The reference anti-inflammatory element is dexamethasone (Sigma) used at 0.4 ppm. A control having undergone the same experimental conditions without the compound (Ia) (CTL), as well as a non-induced control (CTL without IL-1β), are also carried out.
The quantification of the IL-8 in 50 μl of the culture supernatants is measured by an ELISA test (human CXCL8/IL-8 Immunoassay, R&D Systems).
Each treatment is carried out in triplicate.

[2] = system: MMP1; assay: MMP1 immunofluorescence on human skin explants after repeated UVA irradiation; type: cell-based; conditions: skin explant, (Ia) 100 ppm
Procedure: In these examples, the protective properties of the compound (Ia) against the damage caused to the DNA and to the extracellular matrix by repeated UVA irradiation, are measured on explants of human skin (NATIVESKIN, Genoskin).
Upon reception of the explants, the latter are topically coated with Carbopol® (Lubrizol)+DMSO for the non-UVA control (CTL without stress) and for the control with stress by UVAs (CTL UVA), and with Carbopol®+compound (Ia) at 100 ppm for the test.
Over three days, the cells are subjected to three stresses with UVAs at a rate of 50 joules per square centimetre.
The first irradiation takes place 24 hours after the treatments. The products are present before, during and after the irradiation. The control without stress is wrapped in aluminium and also placed in the irradiator.
During the irradiation, the explants inserted are disposed in a petri dish with PBS. Fresh medium (Genoskin Culture medium) is added after the irradiation.
After the third day of irradiation, the explants are cultivated for 24 hours, then collected and fixed for 48 hours in formalin (Sigma). The samples are included in paraffin and cut.
A marking of the protein MMP1 by immunofluorescence on a paraffin section is carried out.
The samples are prepared for the fluorescent marking. […]
The sections are mounted on a slide and the fluorescence is quantified using a microscope (Leica DM5000B).

[3] = system: IL8; assay: Gene expression of IL8 by quantitative RT-PCR in NHEK; type: cell-based, human; conditions: (Ia) 3 ppm (10^−5M), 24 hours
Procedure: In these examples, the expression of the messenger RNA is measured by the technique of quantitative RT-PCR (reverse transcription followed by polymerase chain reaction), after incubation in vitro of the various cell types in the absence or in the presence of compound (Ia).
This study was carried out on normal human dermal Fibroblasts (NHDF) or normal human epidermal Keratinocytes (NHEK). The compound (Ia) is tested at 10^−5M in an aqueous solution with 0.1% dimethylsulfoxide.
The cells are cultured at the concentration of 10,000 cells per well of 96-well plates, in the presence of standard culture medium according to the cell type.
The compound (Ia) is then added at the concentration (3 ppm), for 24 hours.
The supernatant is eliminated and the cells are taken up in a specific buffer for the extraction of the messenger RNA (mRNA). The mRNA is purified and reverse transcribed in the presence of a commercial reverse transcriptase.
The complementary DNA (cDNA) obtained is quantified by RT-PCR, by means of suitable primers. The rate of expression of the mRNA is normalised with 5 reference genes.
The cells used for this example are normal human keratinocytes (NHEK).

[4] = system: NativeSkin® skin explants (Genoskin); assay: Breaks in the DNA (γ-H2AX marking) of NativeSkin skin explant ex vivo after UVA irradiation; type: cell-based, human; conditions: composition 0.9 mmol/L topical, 60 J/cm^2 UVA every day for 3 days, n=10 images, FIG. 7
Procedure: The test was carried out on NativeSkin® skin explants (Genoskin), a biopsy of skin bathed in a solid, nourishing matrix while its epidermal surface is preserved in contact with the air. The biopsy is firmly anchored in the matrix and sealed in order to prevent any lateral diffusion of formulation intended for topical application.
The study was carried out on a donor (phototype 2) under the following conditions.
The compounds tested are implemented in a composition containing them at 0.9 mmol/L in a mixture of Carbopol® (0.5% p/p), DMSO (0.1% p/p) and H2O (qsp 100%).
The samples are irradiated at 60 J/cm^2 UVA every day for 3 days. A treatment is carried out for 24 h before the irradiation, by application of the composition tested onto the sample (deposition of 40 μl of composition onto the stratum corneum), then a post-treatment of 24 h after the irradiation, in the same manner.
A Control of the sample of skin non-irradiated and a Control of the sample of skin irradiated are also carried out, both with application of the vehicle alone (0.5% Carbopol®, 0.1% DMSO, H2O). The Control of the non-irradiated sample of skin is introduced into the irradiator in a sheet of aluminium, in such a way as to protect it against UVs.
The samples are sampled, cut (according to the conventional method of cryo-sectioning implementing paraffin and freezing) and fixed in 1 ml of formalin for 24 h.
The explants are then included in paraffin and sections of 5 μm are made.
The slides obtained are also marked by immunohistochemistry with the biomarker γ-H2Ax.
The analysis of the marking is carried out with a DM5000B fluorescence microscope (Leica Microsystems) and 10 images are acquired for each sample.
For the marking with γ-H2Ax, for each image, the total number of nuclei is detected with 4′,6-diamidino-2-phenylindole (dapi). In the same image, the number of nuclei having the marking is quantified. The ratio of the number of positive nuclei, multiplied by 100, to the number of total nuclei, is calculated, in order to obtain a percentage (=(positive nuclei*100)/total nuclei), n=10 per sample.
A statistical analysis is carried out with a student's test by comparing the samples to the control (p value[…], p value<0.05**, p value<0.005***, ns not significant).

## Cc1ncc(CO)c(CNC(=O)/C=C/c2ccc(O)c(O)c2)c1O [Compound (Ia)]
[1]; Homo sapiens, compound 3 ppm, versus control CTL, read-out: inhibition of the production of IL8 in keratinocytes subjected to inflammation in the presence of IL-1β
  inhibition at 3 ppm: 30%
[1]; IL-1β 10 ng/ml 24 h, then substance 24 h, compound (Ia) 3 ppm, dexamethasone 0.4 ppm, CTL 0.23, CTL without IL-1β 0.06
  Quantification of the IL8 (optical density): 0.16 optical density
[2]; CTL UVA 165.2, CTL without stress 141.6
  Average fluorescence intensity of the MMP1 marking (AU): 146.2 AU
[2]; relative to CTL without stress, CTL UVA +16.7%
  Cells positive for MMP1 based on 100%: +3.2%
[3]
  Reduction of the gene expression compared to the basal level based on 100% (IL8): −75%
[4]
  percentage of nuclei positive for marking with γ-H2AX, compared with controls: clearly reduced with respect to the irradiated control sample

Source: US10918891B2, “Cosmetic treatment method for the skin” (SYNTIVIA, priority 2016, dated 2021)
